Tested on: KRAS PDC tumor spheroids (HUVEC+MSC), viability
Experiment: Anticancer human tumor 254851-301-R-J1-PDC patient-derived colon carcinoma cell line growth inhibition [KRAS2]
Conditions: for IC50: curve of first compound; for viability, T/C: stronger effect = lower value
Outline: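 Combination screen of spheroid viability in tumor-cell co-cultures with endothelial (HUVEC) and mesenchymal stem cell stroma. Each agent was tested in half-log dilutions, topping at clinical Cmax or at 10 microM without a known Cmax.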

[1] = second compound 0.1 µM, first compound 0.00316 µM
[2] = second compound 0.1 µM, first compound 0.01 µM
[3] = second compound 0.1 µM, first compound 0.0316 µM
[4] = second compound 0.1 µM, first compound 0.1 µM
[5] = second compound 0.1 µM, first compound 0.316 µM
[6] = second compound 0.1 µM, first compound 1 µM
[7] = second compound 0.316 µM, first compound 0.00316 µM
[8] = second compound 0.316 µM, first compound 0.01 µM
[9] = second compound 0.316 µM, first compound 0.0316 µM
[10] = second compound 0.316 µM, first compound 0.1 µM
[11] = second compound 0.316 µM, first compound 0.316 µM
[12] = second compound 0.316 µM, first compound 1 µM
[13] = second compound 1 µM, first compound 0.00316 µM
[14] = second compound 1 µM, first compound 0.01 µM
[15] = second compound 1 µM, first compound 0.0316 µM
[16] = second compound 1 µM, first compound 0.1 µM
[17] = second compound 1 µM, first compound 0.316 µM
[18] = second compound 1 µM, first compound 1 µM
[19] = second compound 3.16 µM, first compound 0.00316 µM
[20] = second compound 3.16 µM, first compound 0.01 µM
[21] = second compound 3.16 µM, first compound 0.0316 µM
[22] = second compound 3.16 µM, first compound 0.1 µM
[23] = second compound 3.16 µM, first compound 0.316 µM
[24] = second compound 3.16 µM, first compound 1 µM
[25] = second compound 10 µM, first compound 0.0316 µM
[26] = second compound 10 µM, first compound 0.1 µM
[27] = second compound 10 µM, first compound 0.316 µM
[28] = second compound 10 µM, first compound 1 µM
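Note: spheroids exposed to compounds for seven days before readout.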
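Throughout, for viability, T/C: 100% = DMSO vehicle control luminescence of the spheroids.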

## CCN1CCN(Cc2ccc(Nc3ncc(F)c(-c4cc(F)c5nc(C)n(C(C)C)c5c4)n3)nc2)CC1 + CNCc1ccccc1-c1csc(C(C)Nc2nc(C)nc3cc(OC)c(OC)cc23)c1
Second compound 0.1 µM
  IC50: 0.661 µM
Second compound 0.316 µM
  IC50: 0.514 µM
Second compound 1 µM
  IC50: 0.489 µM
Second compound 3.16 µM
  IC50: < 0.00316 µM
Second compound 10 µM
  IC50: < 0.00316 µM
[1]
  viability, T/C: 91.4%
[2]
  viability, T/C: 94.5%
[3]
  viability, T/C: 76.8%
[4]
  viability, T/C: 69.1%
[5]
  viability, T/C: 70.9%
[6]
  viability, T/C: 40.4%
[7]
  viability, T/C: 110%
[8]
  viability, T/C: 86.2%
[9]
  viability, T/C: 84%
[10]
  viability, T/C: 63.1%
[11]
  viability, T/C: 59.9%
[12]
  viability, T/C: 41%
[13]
  viability, T/C: 83.4%
[14]
  viability, T/C: 83.6%
[15]
  viability, T/C: 81%
[16]
  viability, T/C: 62.6%
[17]
  viability, T/C: 63.1%
[18]
  viability, T/C: 35.8%
[19]
  viability, T/C: 42.2%
[20]
  viability, T/C: 35.1%
[21]
  viability, T/C: 26.4%
[22]
  viability, T/C: 21.7%
[23]
  viability, T/C: 17.9%
[24]
  viability, T/C: 14.7%
Second compound 10 µM, first compound 0.00316 µM
  viability, T/C: 0.07%
Second compound 10 µM, first compound 0.01 µM
  viability, T/C: 0.09%
[25]
  viability, T/C: 0.09%
[26]
  viability, T/C: 0.06%
[27]
  viability, T/C: 0.07%
[28]
  viability, T/C: 0.11%

## CCN1CCN(Cc2ccc(Nc3ncc(F)c(-c4cc(F)c5nc(C)n(C(C)C)c5c4)n3)nc2)CC1 + C=CC(=O)N1CCN(c2nc(OCC3CCCN3C)nc3c2CCN(c2cccc4cccc(C)c24)C3)CC1CC#N
Second compound 0.0316 µM
  IC50: 0.605 µM
Second compound 0.1 µM
  IC50: 0.645 µM
Second compound 0.316 µM
  IC50: 0.6 µM
Second compound 1 µM
  IC50: 0.131 µM
Second compound 3.16 µM
  IC50: 0.0553 µM
Second compound 0.0316 µM, first compound 0.00316 µM
  viability, T/C: 102%
Second compound 0.0316 µM, first compound 0.01 µM
  viability, T/C: 97.3%
Second compound 0.0316 µM, first compound 0.0316 µM
  viability, T/C: 90.8%
Second compound 0.0316 µM, first compound 0.1 µM
  viability, T/C: 78.1%
Second compound 0.0316 µM, first compound 0.316 µM
  viability, T/C: 64.4%
Second compound 0.0316 µM, first compound 1 µM
  viability, T/C: 39.2%
[1]
  viability, T/C: 98.9%
[2]
  viability, T/C: 95.5%
[3]
  viability, T/C: 83.3%
[4]
  viability, T/C: 71.5%
[5]
  viability, T/C: 66.2%
[6]
  viability, T/C: 40.6%
[7]
  viability, T/C: 98%
[8]
  viability, T/C: 87.6%
[9]
  viability, T/C: 94.2%
[10]
  viability, T/C: 77%
[11]
  viability, T/C: 60.5%
[12]
  viability, T/C: 42%
[13]
  viability, T/C: 59.5%
[14]
  viability, T/C: 63.2%
[15]
  viability, T/C: 57.5%
[16]
  viability, T/C: 49.7%
[17]
  viability, T/C: 44.5%
[18]
  viability, T/C: 34.6%
[19]
  viability, T/C: 65.6%
[20]
  viability, T/C: 56.8%
[21]
  viability, T/C: 52.5%
[22]
  viability, T/C: 43.4%
[23]
  viability, T/C: 40.1%
[24]
  viability, T/C: 16%

## COc1cc2nccc(Oc3ccc(NC(=O)C4(C(=O)Nc5ccc(F)cc5)CC4)cc3)c2cc1OC + CC1OCC2(CCN(c3cnc(Sc4ccnc(N)c4Cl)c(N)n3)CC2)C1N
Second compound 0.1 µM
  IC50: 9.27 µM
Second compound 0.316 µM
  IC50: 9.86 µM
Second compound 1 µM
  IC50: 6.69 µM
Second compound 3.16 µM
  IC50: > 10 µM
Second compound 10 µM
  IC50: 6.02 µM
[3]
  viability, T/C: 100%
[4]
  viability, T/C: 103%
[5]
  viability, T/C: 95.6%
[6]
  viability, T/C: 112%
Second compound 0.1 µM, first compound 3.16 µM
  viability, T/C: 102%
Second compound 0.1 µM, first compound 10 µM
  viability, T/C: 46.3%
[9]
  viability, T/C: 98.7%
[10]
  viability, T/C: 112%
[11]
  viability, T/C: 100%
[12]
  viability, T/C: 90.5%
Second compound 0.316 µM, first compound 3.16 µM
  viability, T/C: 84.4%
Second compound 0.316 µM, first compound 10 µM
  viability, T/C: 48.7%
[15]
  viability, T/C: 85.2%
[16]
  viability, T/C: 92.4%
[17]
  viability, T/C: 91.7%
[18]
  viability, T/C: 80.3%
Second compound 1 µM, first compound 3.16 µM
  viability, T/C: 71.6%
Second compound 1 µM, first compound 10 µM
  viability, T/C: 38.7%
[21]
  viability, T/C: 69.7%
[22]
  viability, T/C: 84.4%
[23]
  viability, T/C: 82.3%
[24]
  viability, T/C: 72.1%
Second compound 3.16 µM, first compound 3.16 µM
  viability, T/C: 62.3%
Second compound 3.16 µM, first compound 10 µM
  viability, T/C: 56.5%
[25]
  viability, T/C: 77.8%
[26]
  viability, T/C: 75.6%
[27]
  viability, T/C: 74.4%
[28]
  viability, T/C: 68.1%
Second compound 10 µM, first compound 3.16 µM
  viability, T/C: 63.9%
Second compound 10 µM, first compound 10 µM
  viability, T/C: 40.2%

Reference: PubChem BioAssay AID1963868 (Molecular Pharmacology Branch, DTP, NCI, 2024)
